Here are results for one molecule from PMC11233931, “Remodeling tumor‐associated macrophage for anti‐cancer effects by rational design of irreversible inhibition of mitogen‐activated protein kinase‐activated protein kinase 2” (MedComm, 2024).

SMILES strings stand for the structures.

Common to all, as to assay: Eurofins kinase selectivity profile against 380 other human recombinant kinases (Table S2)
Holding throughout (type): biochemical

Assay [1] concerns the target T1, 380 human recombinant protein kinases (Homo sapiens, UniProt P42336, E542K).
T1 construct: purchased Eurofins (Celle Lévescault)
To be noted: PI3 Kinase (p110α(E542K)/p85α)(h), read-out: Inhibition rate (%). An outline of the steps:
(§1)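 Selectivity panel of 380 human recombinant protein kinases, screened by Eurofins at a range of concentrations.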

In assay [2] the target is T2, 380 human recombinant protein kinases (Homo sapiens, UniProt P49840).
T2 construct: purchased Eurofins (Celle Lévescault)
To be noted: GSK3α(h), read-out: Inhibition rate. An outline of the steps:
as §1

Assay [3] deals with T3, 380 human recombinant protein kinases (Homo sapiens, UniProt P53350).
T3 construct: purchased Eurofins (Celle Lévescault)
To be noted: Plk1(h), read-out: Inhibition rate. An outline of the steps:
as §1

Assay [4] has as its target T4, 380 human recombinant protein kinases (Homo sapiens, UniProt Q00532).
T4 construct: purchased Eurofins (Celle Lévescault)
To be noted: CDKL1(h), read-out: Inhibition rate. An outline of the steps: as §1

For assay [5], the target named is T5, 380 human recombinant protein kinases (Homo sapiens, UniProt Q12851).
T5 construct: purchased Eurofins (Celle Lévescault)
T5 sequence (Q12851 1-820): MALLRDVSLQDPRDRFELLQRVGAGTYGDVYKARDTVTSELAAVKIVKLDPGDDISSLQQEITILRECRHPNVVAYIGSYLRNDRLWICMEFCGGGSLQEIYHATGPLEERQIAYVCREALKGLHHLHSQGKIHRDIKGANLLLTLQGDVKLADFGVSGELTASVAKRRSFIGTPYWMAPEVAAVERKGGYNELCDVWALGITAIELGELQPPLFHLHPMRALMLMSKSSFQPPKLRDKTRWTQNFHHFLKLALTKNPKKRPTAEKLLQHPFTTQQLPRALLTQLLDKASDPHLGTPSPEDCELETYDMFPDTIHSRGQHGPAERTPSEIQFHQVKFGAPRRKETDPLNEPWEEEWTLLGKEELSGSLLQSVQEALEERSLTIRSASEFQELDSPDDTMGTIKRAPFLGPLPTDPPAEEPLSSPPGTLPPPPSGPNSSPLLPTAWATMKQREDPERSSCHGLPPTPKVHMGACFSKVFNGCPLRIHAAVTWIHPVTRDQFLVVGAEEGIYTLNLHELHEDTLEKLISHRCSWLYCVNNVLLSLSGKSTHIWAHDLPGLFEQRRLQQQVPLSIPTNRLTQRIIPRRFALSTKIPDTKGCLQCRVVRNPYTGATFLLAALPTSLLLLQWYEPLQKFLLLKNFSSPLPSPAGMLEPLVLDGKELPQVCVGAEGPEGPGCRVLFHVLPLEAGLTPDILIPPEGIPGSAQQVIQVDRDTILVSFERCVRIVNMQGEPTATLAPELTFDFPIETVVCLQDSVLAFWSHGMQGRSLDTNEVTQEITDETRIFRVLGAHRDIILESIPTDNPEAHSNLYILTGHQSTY
To be noted: GCK(h), read-out: Inhibition rate. An outline of the steps: as §1

The target in assay [6] is T6, 380 human recombinant protein kinases (Homo sapiens, UniProt Q15303).
T6 construct: purchased Eurofins (Celle Lévescault)
To be noted: ErbB4(h), read-out: Inhibition rate. An outline of the steps:
as §1

The target in assay [7] is T7, 380 human recombinant protein kinases (Homo sapiens, UniProt Q6DT37).
T7 construct: purchased Eurofins (Celle Lévescault)
To be noted: MRCKγ(h), read-out: Inhibition rate. An outline of the steps:
as §1

Assay [8] deals with T8, 380 human recombinant protein kinases (Homo sapiens, UniProt Q9H2G2).
T8 construct: purchased Eurofins (Celle Lévescault)
To be noted: SLK(h), read-out: Inhibition rate (%). An outline of the steps:
as §1

T1 sequence (P42336 whole entry E542K): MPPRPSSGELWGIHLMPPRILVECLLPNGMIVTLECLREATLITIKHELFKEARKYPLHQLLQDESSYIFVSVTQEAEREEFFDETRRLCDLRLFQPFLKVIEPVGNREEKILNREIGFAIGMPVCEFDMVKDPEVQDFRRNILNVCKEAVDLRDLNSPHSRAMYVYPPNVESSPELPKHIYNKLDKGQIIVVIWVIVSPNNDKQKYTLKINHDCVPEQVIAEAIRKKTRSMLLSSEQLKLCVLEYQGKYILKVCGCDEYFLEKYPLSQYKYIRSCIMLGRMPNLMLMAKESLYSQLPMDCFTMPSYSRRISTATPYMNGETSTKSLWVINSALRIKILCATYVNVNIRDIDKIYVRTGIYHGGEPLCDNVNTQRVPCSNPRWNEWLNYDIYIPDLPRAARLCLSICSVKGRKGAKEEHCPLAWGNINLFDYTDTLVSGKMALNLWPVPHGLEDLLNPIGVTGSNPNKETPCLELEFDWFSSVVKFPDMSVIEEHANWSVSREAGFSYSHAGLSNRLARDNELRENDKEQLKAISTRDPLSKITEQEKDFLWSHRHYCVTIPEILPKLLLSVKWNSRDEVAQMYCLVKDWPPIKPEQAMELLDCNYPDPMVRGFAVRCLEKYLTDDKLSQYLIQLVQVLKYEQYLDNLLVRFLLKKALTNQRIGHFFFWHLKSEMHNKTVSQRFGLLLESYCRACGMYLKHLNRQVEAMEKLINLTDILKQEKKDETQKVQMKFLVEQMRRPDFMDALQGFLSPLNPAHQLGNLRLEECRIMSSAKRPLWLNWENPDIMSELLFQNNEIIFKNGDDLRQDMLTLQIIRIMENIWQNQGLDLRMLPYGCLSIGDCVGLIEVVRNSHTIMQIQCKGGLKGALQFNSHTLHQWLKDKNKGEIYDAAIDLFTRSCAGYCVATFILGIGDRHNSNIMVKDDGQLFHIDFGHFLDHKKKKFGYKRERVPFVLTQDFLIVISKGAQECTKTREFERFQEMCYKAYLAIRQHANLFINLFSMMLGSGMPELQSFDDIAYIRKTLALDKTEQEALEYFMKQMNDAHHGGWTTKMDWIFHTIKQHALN
T8 sequence (Q9H2G2 whole entry): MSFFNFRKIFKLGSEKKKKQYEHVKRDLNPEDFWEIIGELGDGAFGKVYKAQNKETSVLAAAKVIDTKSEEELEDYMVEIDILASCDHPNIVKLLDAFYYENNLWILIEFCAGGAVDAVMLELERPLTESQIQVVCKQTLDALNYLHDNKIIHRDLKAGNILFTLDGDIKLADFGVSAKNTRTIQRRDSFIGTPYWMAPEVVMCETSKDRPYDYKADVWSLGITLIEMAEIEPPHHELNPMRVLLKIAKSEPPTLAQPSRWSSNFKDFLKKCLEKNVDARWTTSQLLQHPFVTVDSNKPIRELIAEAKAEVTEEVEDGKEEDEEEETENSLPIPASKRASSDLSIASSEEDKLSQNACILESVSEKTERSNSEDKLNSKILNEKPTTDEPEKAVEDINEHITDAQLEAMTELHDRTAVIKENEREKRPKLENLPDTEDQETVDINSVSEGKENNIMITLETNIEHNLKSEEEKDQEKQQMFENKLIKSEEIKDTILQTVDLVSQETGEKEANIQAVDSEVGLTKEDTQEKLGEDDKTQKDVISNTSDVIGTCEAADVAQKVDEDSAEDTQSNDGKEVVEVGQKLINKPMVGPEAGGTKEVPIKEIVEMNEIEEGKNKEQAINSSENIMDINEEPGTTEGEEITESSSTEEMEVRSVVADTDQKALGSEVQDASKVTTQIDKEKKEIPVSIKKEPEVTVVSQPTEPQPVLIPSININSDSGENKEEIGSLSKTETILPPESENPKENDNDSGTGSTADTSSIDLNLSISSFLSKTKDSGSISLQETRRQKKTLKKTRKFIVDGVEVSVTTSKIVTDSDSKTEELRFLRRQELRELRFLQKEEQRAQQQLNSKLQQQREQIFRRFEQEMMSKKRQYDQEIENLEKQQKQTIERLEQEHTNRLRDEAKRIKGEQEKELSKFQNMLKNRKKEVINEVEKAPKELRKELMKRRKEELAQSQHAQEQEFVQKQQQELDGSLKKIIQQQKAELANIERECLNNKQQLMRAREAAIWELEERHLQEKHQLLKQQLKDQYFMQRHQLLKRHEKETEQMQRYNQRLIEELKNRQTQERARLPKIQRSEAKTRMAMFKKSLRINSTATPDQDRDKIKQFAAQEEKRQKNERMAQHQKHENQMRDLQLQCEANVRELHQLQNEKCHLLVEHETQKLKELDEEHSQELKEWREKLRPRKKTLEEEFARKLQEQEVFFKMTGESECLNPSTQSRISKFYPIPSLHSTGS
T2 sequence (P49840 whole entry): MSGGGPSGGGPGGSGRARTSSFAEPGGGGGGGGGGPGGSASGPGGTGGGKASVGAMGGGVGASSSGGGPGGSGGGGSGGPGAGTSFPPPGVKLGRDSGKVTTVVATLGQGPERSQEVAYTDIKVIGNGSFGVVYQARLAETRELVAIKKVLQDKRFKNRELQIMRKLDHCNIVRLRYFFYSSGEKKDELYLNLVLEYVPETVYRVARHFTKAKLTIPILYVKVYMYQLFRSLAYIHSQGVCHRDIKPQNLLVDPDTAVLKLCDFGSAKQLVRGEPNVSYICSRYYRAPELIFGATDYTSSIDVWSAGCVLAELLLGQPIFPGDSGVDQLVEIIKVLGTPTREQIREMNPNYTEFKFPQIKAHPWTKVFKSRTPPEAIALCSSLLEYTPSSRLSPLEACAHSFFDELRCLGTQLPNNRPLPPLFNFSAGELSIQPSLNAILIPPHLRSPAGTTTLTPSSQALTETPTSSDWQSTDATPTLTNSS
T3 sequence (P53350 whole entry): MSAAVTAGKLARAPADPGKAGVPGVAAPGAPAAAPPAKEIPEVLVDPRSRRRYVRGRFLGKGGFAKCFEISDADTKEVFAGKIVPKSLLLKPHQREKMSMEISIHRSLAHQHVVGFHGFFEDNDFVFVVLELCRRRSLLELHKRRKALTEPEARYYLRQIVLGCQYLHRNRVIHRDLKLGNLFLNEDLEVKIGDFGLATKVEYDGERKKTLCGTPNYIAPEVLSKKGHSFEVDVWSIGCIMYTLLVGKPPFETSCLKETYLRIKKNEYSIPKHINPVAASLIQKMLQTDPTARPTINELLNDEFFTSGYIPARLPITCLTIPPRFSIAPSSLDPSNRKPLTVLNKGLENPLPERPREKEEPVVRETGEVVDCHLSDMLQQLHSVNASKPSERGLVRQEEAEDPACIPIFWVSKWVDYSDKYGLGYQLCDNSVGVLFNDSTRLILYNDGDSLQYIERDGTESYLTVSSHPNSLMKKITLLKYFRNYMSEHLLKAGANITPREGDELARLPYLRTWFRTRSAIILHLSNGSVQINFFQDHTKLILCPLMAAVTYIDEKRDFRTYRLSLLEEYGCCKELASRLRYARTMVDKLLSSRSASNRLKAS
T7 sequence (Q6DT37 whole entry): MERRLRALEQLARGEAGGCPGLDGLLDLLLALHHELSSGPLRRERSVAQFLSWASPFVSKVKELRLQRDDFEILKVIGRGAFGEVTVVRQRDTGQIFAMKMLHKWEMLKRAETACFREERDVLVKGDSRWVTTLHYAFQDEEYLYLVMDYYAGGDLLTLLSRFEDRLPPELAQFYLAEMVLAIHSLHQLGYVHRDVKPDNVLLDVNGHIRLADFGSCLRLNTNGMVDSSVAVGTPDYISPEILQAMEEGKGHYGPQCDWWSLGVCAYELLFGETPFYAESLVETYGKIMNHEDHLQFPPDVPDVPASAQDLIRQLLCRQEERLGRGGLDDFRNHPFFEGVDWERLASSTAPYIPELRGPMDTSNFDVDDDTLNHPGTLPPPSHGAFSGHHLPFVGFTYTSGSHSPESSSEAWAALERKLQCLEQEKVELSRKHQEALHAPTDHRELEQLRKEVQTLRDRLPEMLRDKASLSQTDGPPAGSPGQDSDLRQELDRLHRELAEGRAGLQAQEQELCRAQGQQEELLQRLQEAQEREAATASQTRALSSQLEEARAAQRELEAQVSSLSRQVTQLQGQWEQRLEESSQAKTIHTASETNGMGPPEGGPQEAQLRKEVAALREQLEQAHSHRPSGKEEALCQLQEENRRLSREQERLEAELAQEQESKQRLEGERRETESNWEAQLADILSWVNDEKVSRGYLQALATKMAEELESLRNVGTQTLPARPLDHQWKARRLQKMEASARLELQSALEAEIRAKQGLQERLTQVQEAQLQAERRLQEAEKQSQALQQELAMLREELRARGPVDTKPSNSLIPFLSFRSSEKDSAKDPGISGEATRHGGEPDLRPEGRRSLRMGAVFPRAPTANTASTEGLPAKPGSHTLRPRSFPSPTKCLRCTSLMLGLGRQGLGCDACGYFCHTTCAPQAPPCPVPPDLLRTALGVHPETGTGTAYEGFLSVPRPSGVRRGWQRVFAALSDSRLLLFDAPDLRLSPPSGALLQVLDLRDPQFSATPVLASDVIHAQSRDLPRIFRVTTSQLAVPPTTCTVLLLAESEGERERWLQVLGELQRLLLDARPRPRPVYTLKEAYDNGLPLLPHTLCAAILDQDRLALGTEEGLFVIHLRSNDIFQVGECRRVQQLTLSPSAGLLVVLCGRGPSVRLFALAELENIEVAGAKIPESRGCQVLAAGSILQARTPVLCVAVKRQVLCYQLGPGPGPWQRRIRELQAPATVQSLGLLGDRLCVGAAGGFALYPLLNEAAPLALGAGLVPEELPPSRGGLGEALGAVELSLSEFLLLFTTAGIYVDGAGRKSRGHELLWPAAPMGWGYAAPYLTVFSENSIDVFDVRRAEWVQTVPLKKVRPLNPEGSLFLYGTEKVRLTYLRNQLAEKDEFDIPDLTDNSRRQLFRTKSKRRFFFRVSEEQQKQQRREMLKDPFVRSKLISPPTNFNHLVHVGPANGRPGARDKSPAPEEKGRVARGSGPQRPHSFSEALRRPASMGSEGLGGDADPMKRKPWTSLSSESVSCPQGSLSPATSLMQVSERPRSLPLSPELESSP

For the molecule `C=CC(=O)Nc1cc(-c2cc(-c3cc4c([nH]3)CCNC4=O)ccn2)ccc1OC(F)(F)F` [compound 11], the inhibition at 0.01 µM in assay [1] (10 nM) is -3%; in assay [2] (10 nM) it was 15%; in assay [3] (10 nM), 13%; in assay [4] (10 nM), 26%; in assay [5] (10 nM), -2%; in assay [6] (10 nM) it was -15%. The results for the inhibition at 0.01 µM in assay [7] (10 nM) and in assay [8] (10 nM) were -13% and 1%, respectively. For the same molecule, the inhibition at 0.1 µM in assay [1] (100 nM) was -2%; in assay [2] (100 nM) it was -9%; in assay [3] (100 nM), 15%; in assay [4] (100 nM), 47%; in assay [5] (100 nM), -9%; in assay [6] (100 nM), -3%. In addition, the figures for the inhibition at 0.1 µM in assay [7] (100 nM) and in assay [8] (100 nM) were 2% and 4%, respectively. Moreover, the inhibition at 1 µM is -2% in assay [1] (1000 nM); 10% in assay [2] (1000 nM); 13% in assay [3] (1000 nM); 49% in assay [4] (1000 nM); 17% in assay [5] (1000 nM); 6% in assay [6] (1000 nM). The inhibition at 1 µM came out at 12% in assay [7] (1000 nM) and 4% in assay [8] (1000 nM).

In general, inhibition refers to the drop in the measured response relative to a control, in per cent.
